Earlier results on two sequences are cited in patent publication US20230287067A1, “HUMAN I[…] OF HEMO AND HHLA2 HUMAN ENDOGENOUS RETROVIRUSES (HERVS)” (priority 2020, published 2023).

One data set relates to HLA-A2. Particulars: known property of control peptide.
Another data set deals with HLA-A24. Particulars: known property of control peptide.

Take SYLIRALTL: the “binding to HLA-A2” value in the data set with HLA-A2 is “not to HLA-A2”. In addition, the “binding to HLA-A24” value in the data set with HLA-A24 is “binds strongly”.
With “WLLPGTSTV [agonist peptide derived from the tumor-associated antigen Brachyury]”, in the data set on HLA-A2, the “binding to HLA-A2” value was “bind strongly”.
